Source: US10725001B2, “Liquid crystal composition, pH sensing device using the same, and pH sensing device kit using the same” (Tamkang University, priority 2016, dated 2020)

Assay: Acid dissociation constants (pKa) of the dopant compounds
Type: physicochemical
Settings: read-out: acid dissociation constant (pKa)

| pKa | SMILES |
| --- | --- |
| 9.77 | CCCCCCCCCCOc1ccc(-c2ccc(C(=O)O)cc2)cc1 [Formula (I-3)] |
| 7.68 | CCCCCCc1ccc(-c2ccc(C(=O)O)cc2)cc1 [Formula (I-1)] |
| 8.74 | CCCCCCCCCCCCOc1ccc(-c2ccc(C(=O)O)cc2)cc1 [Formula (I-4)] |
| 7.66 | CCCCCCCCOc1ccc(-c2ccc(C(=O)O)cc2)cc1 [Formula (I-2)] |
